Data as given in patent US20070010671A1, “Novel quinazoline derivatives and methods of treatment related to the use thereof” (priority 2003, published 2007).

What follows are compounds tested against MCH receptor (Homo sapiens, UniProt Q99705) (assay: High throughput functional screening FLIPR/FDSS6000: inhibition of MCH-evoked intracellular Ca2+ changes). Settings: class by percent of control at 10^-7 M or IC50.
Format: cell-based
How it was run: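 Cells expressing constitutively active MCH receptor, loaded with 4 μM Fluo4-AM for 1 h at 37 °C, were pretreated 3 min with compound, then challenged with MCH (50 nM for antagonist testing). MCH-evoked [Ca2+]i transients followed by FLIPR or FDSS (ex 488/em 530 nm) over 290 s.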

Compound | class
CCc1ccc(NC(=S)NC[C@H]2CC[C@@H](Nc3nc(N(C)C)c4ccccc4n3)CC2)cc1 [compound 629] | 3 (Class 3: The value of percent of control at 10^−7 M was more than 60% or the value of IC50 was more than 200 nM.)
CN(C)c1nc(N[C@H]2CC[C@@H](CNC(=O)Nc3cc(Cl)c(Cl)cc3Cl)CC2)nc2ccccc12 [compound 474] | 3 (Class 3: The value of percent of control at 10^−7 M was more than 60% or the value of IC50 was more than 200 nM.)
CN(C)c1nc(N[C@H]2CC[C@@H](CNC(=S)Nc3c(F)cccc3F)CC2)nc2ccccc12 [compound 637] | 3 (Class 3: The value of percent of control at 10^−7 M was more than 60% or the value of IC50 was more than 200 nM.)
Cc1ccc(NC(=O)NC[C@H]2CC[C@@H](Nc3nc(N(C)C)c4ccccc4n3)CC2)cc1[N+](=O)[O-] [compound 558, N-[(cis-4-{[4-(dimethylamino)quinazolin-2-yl]amino}cyclohexyl)methyl]-N′-(4-methyl-3-nitrophenyl)urea] | 2 (Class 2: The value of percent of control at 10^−7 M was from 40% to 60% or the value of IC50 was from 50 nM to 200 nM.)
N-(2,5-dimethylphenyl)-N′-[(cis-4-{[4-(dimethylamino)quinazolin-2-yl]amino}cyclohexyl)methyl]urea [compound 480] | 2 (Class 2: The value of percent of control at 10^−7 M was from 40% to 60% or the value of IC50 was from 50 nM to 200 nM.)
CN(C)c1nc(N[C@H]2CC[C@@H](CNC(=S)Nc3cccc4ccccc34)CC2)nc2ccccc12 [compound 611] | 3 (Class 3: The value of percent of control at 10^−7 M was more than 60% or the value of IC50 was more than 200 nM.)
CN(C)c1nc(N[C@H]2CC[C@@H](CNC(=S)NCCCc3ccccc3)CC2)nc2ccccc12 [compound 689] | 3 (Class 3: The value of percent of control at 10^−7 M was more than 60% or the value of IC50 was more than 200 nM.)
CC(C)c1ccccc1NC(=O)NC[C@H]1CC[C@@H](Nc2nc(N(C)C)c3ccccc3n2)CC1 [compound 502, N-[(cis-4-{[4-(dimethylamino)quinazolin-2-yl]amino}cyclohexyl)methyl]-N′-(2-isopropylphenyl)urea] | 1 (Class 1: The value of percent of control at 10^−7 M was less than 40% or the value of IC50 was less than 50 nM.)
Cc1cc(NC(=O)NC[C@H]2CC[C@@H](Nc3nc(N(C)C)c4ccccc4n3)CC2)c(C(F)(F)F)o1 [compound 767, N-[(cis-4-{[4-(dimethylamino)quinazolin-2-yl]amino}cyclohexyl)methyl]-N′-[5-methyl-2-(trifluoromethyl)-3-furyl]urea] | 1 (Class 1: The value of percent of control at 10^−7 M was less than 40% or the value of IC50 was less than 50 nM.)
Cc1c(Cl)cccc1NC(=O)NC[C@H]1CC[C@@H](Nc2nc(N(C)C)c3ccccc3n2)CC1 [compound 528] | 1 (Class 1: The value of percent of control at 10^−7 M was less than 40% or the value of IC50 was less than 50 nM.)
CN(C)c1nc(N[C@H]2CC[C@@H](NC(=S)Nc3ccc(N4CCOCC4)nc3)CC2)nc2ccccc12 [compound 403] | 3 (Class 3: The value of percent of control at 10^−7 M was more than 60% or the value of IC50 was more than 200 nM.)
Cc1cc(Br)ccc1NC(=S)N[C@H]1CC[C@@H](Nc2nc(N(C)C)c3ccccc3n2)CC1 [compound 267] | 1 (Class 1: The value of percent of control at 10^−7 M was less than 40% or the value of IC50 was less than 50 nM.)

Same assay, conditions: class by percent of control at 10^-7 M or by IC50; read-out: class

IC50 [µM] | Compound
< 0.05 | COc1ccc(NC(=S)N[C@H]2CC[C@@H](Nc3nc(N(C)C)c4ccccc4n3)CC2)c(OC)c1 [compound 166]
0.05 to 0.2 | CSc1cccc(NC(=O)N[C@H]2CC[C@@H](Nc3nc(N(C)C)c4ccccc4n3)CC2)c1 [compound 118]

Same assay, conditions: class by percent of control at 10^−7 M or by IC50; read-out: class

IC50 [µM] | Compound
< 0.05 | Cc1cccc(NCC(=O)N[C@H]2CC[C@@H](Nc3nc(N(C)C)c4ccccc4n3)CC2)c1 [Example 1086, N-(cis-4-{[4-(dimethylamino)quinazolin-2-yl]amino}cyclohexyl)-N2-(3-methylphenyl)glycinamide]
